Measured values as given in US8119689B2, “Adjuvants on the basis of bisacyloxypropylcystene conjugates and derivatives and their uses in pharmaceutical compositions” (Helmholtz-Zentrum Fuer Infektionsforschung GmbH, priority 2005, dated 2012).

Key:
[1] = system: primary bone marrow-derived dendritic cells; assay: In vitro stimulation of primary bone marrow-derived murine dendritic cells, surface markers by flow cytometry; assay type: cell-based, BALB/c mice; settings: CD11c+-gated DC, 50 ng/ml, 16 or 40 h pre-treatment
Protocol: FIG. 1: FIGS. 1A-1C show the results for In vitro studies using primary dendritic cells. Primary bone marrow-derived dendritic cell cultures were obtained from BALB/c mice by in vitro maturation of precursors using recombinant GM-CSF (5×10^4 U/ml). Mature dendritic cells were stimulated with 10 ng/ml of E. coli lypopolysaccharide (LPS) or 50 and 100 ng/ml of BPPcysGlyc4armPEG and BPPcysAda, respectively. Then, cells were double-labeled with antibodies specific for CD11c (dendritic cell marker) in combination with anti-CD40, anti-CD54, anti-CD80, anti-CD86, anti-MHC class 1, or anti-MHC class 11 antibodies. The expression of CD40, CD80, CD54, CD86, anti-MHC class 1, and MHC class 11 in CD11c-gated cells were analyzed by flow cytometry.
Experimental protocol: primary bone marrow-derived dendritic cell cultures were obtained from BALB/c mice following in vitro maturation of precursors in the presence of recombinant GM-CSF (5×10^4 U/ml), according to established protocols. Mature dendritic cells were stimulated with 10 ng/ml of E. coli lypopolysaccharide (LPS) or 5 ng/ml of BPPcysGlyc4armPEG, after 12, 24 and/or 48 h stimulation cells were analyzed by flow cytometry to assess the expression of surface markers which are relevant for their antigen presentation capacity.
In order to identify compounds which may have potential as adjuvants for in vivo applications in the vaccinology field, a first in vitro screening based on the used of primary cultures of bone marrow-derived dendritic cells was established. Dendritic cells were selected since they represent the most efficient antigen presenting cells and they play a key role by primary immune responses. In fact, they are the only cell type able to activate resting T cells initiating primary immune responses in vivo. Thus, dendritic cell cultures were treated with the tested moieties or LPS, which was used as a positive control. At different time intervals, samples were taken, stained with fluorescent-labeled antibodies specific for cellular markers critical for the antigen presenting capacities of dendritic cells, and analyzed by flow cytometry.
To test the stimulatory capacity of BPPCysAda on maturation and activation of bone marrow-derived DC, immature DC's were stimulated in vitro with BPPCysAda. Surface markers on CD11c+-gated DC were investigated by FACS analysis after 16 or 40 h pre-treatment.

spleen cells [2] = assay: In vitro T cell-mediated proliferative response of spleen cells restimulated with the adjuvant ([3H]thymidine); assay type: cell-based, Balb/c mice; settings: negative control 4armPEG or Ada
Protocol: FIG. 2: FIG. 2 illustrates the cellular responses of restimulated spleen cells using different concentrations of BPPcysGlyc4armPEG or BPPcysAda as adjuvant. […] Results are expressed as counts per minute (A) and (C) and stimulation indexes (cpm samples/cpm in control non stimulated cells) (B).
Experimental protocol: Spleens were removed and pooled for analysis of cellular immune responses. Cells were grown in RPMI 1640 supplemented with 10% fetal calf serum, 100 U/ml of penicillin, 50 μg/ml of streptomycin, 5×10^−5 M 2-mercaptoethanol and 1 mM L-glutamine (GIBCO BRL, Karlsruhe, Germany) and maintained at 37° C. in a humidified 5% CO2 atmosphere. Lymph node and spleen cell suspensions were adjusted to 5×10^6 cells/ml in complete medium, cells were seeded with 100 μl per well in a flat-bottomed 96-well microtiter plate (Nunc) and plates were incubated for 4 days in the presence of different concentrations of soluble β-gal. Each concentration was tested in quadruplicates. […] Cells were then harvested on paper filters (Filtermat A; Wallac, Freiburg, Germany) by using a cell harvester (Inotech, Wohlen, Switzerland), and the amount of incorporated [^3H]thymidine into the DNA of proliferating cells was determined by a […] (Wallac 1450, Micro-Trilux). The results are expressed as the arithmetic mean of [^3H]thymidine uptake in cpm. […]

β-gal-specific IgA = assay: β-gal-specific secretory IgA in lung and vaginal lavages of i.n. immunized mice; assay type: in vivo, BALB/c mice; settings: i.n. immunization
Protocol: Differences were statistically significant at p<0.05 (*) with respect to mice receiving antigen alone. One representative out of four independent experiments is shown. SEM is indicated by vertical lines.
At day 38, mice were sacrificed and the final sampling was performed. Vaginal and lung ravages were obtained by flushing the organs with 1 ml of PBS supplemented with 50 mM EDTA, 0.1% BSA, and 10 mM PMSF. Lavages were then centrifuged to remove debris (10 min at 3000×g), and supernatant fluids were stored at −20° C. To determine the concentration of total IgA present in the lung and vaginal ravages, serial dilutions of the corresponding samples were incubated in microtiter plates that were previously coated with goat anti-mouse IgA (Sigma Chemie), as capture antibodies (100 μl/well). Serial dilutions of purified mouse IgA (Sigma Chemie) were used to generate a standard curve.

spleen cells [3] = assay: ELISPOT of cytokine producing spleen cells from vaccinated mice; assay type: in vivo
Protocol: FIG. 9: FIG. 9 provides the cytokine profile (IFNγ, IL-4 and IL-2) secreted by in vitro re-stimulated spleen cells from mice vaccinated with either BPPcysGlyc4armPEG or BPPcysMPEG (A), or BPPcysAda (B) and the model antigen β-gal (30 μg) alone. Results are expressed as spot forming units with subtracted background in the immunized groups with respect to the non-immunized control mice. Differences were statistically significant at p<0.05 (*) with respect to mice receiving antigen alone.
Experimental protocol: Spleens were removed and pooled for analysis of cellular immune responses. Cells were grown in RPMI 1640 supplemented with 10% fetal calf serum, 100 U/ml of penicillin, 50 μg/ml of streptomycin, 5×10^−5 M 2-mercaptoethanol and 1 mM L-glutamine (GIBCO BRL, Karlsruhe, Germany) and maintained at 37° C. in a humidified 5% CO2 atmosphere. […] Coat ELISPOT plate with 100 μl/well of purified capture antibody at 10 μg/ml in coating buffer, incubate at 4° C. overnight. After 6× washing steps, the plates were blocked with 200 μl/well of complete RPMI-1640 at room temperature for 1 hour. The activated cells were seeded at 100 μl per well and incubate at 37° C., in a 5% CO2 humidified incubator for 24 hours or 48 hours. After 5× washing steps with washing buffer and 1× step with distilled water, 100 μl/well of the biotinylated detection antibody with a concentration of 1 μg/ml in Assay Diluent was added and incubated at room temperature for 2 hrs. After further washing steps 100 μl/well of the AV-HRP at 1/1000 dilution in Assay Diluent was added and incubated at room temperature for 30 minutes. After further washing steps 100 μl/well of AEC Substrate Solution was added and developed at room temperature for 20-60 minutes until visible spots appeared. After washing steps with (3×) with 200 μl/well distilled water, the plates were air-dried and analyzed by counting the spots by an ELISPOT reader. Each concentration was tested in triplicates.

CCCCCCCCCCCCCCCC(=O)OCC(CSC[C@H](N)C(=O)N[C@H]1[C@@H](O)[C@H](n2cnc3c(N)ncnc32)O[C@@H]1CO)OC(=O)CCCCCCCCCCCCCCC (single isomer, unassigned) [BPPcysAda, S-[2,3-bis(palmitoyloxy)-(2S or 2R)-propyl]-L-cysteinylcarboxy-3′Amino-3′-deoxyadenosine]
expression of MHC class I and II molecules [1]: increased expression | expression of the adhesion molecule ICAM-1 (CD54) [1]: enhanced expression | expression of the co-stimulatory molecule CD86 [1]: up-regulated | proliferative response of restimulated spleen cells (stimulation index) (spleen cells [2]): efficient proliferative response | β-gal-specific IgA in vaginal lavages (β-gal-specific IgA; day 38): significantly higher levels | β-gal-specific IgA in lung lavages (BAL) (β-gal-specific IgA; day 38, vs antigen alone): significantly higher levels | splenic IL-2 producing cells (spleen cells [3]; i.n. and s.c. route): enhanced expression | splenic IL-4 producing cells (spleen cells [3]; i.n. and s.c. route): enhanced expression | number of splenic IFNγ producing cells (spleen cells [3]; restimulation with MHC class I-restricted β-Galactosidase peptide): increment
